One molecule from patent US7250438B2, “Anti-bacterial and anti-cancer spiro beta-lactone/gamma-lactams” (Nereus Pharmaceuticals, Inc., priority 2004, dated 2007) can be followed below.

By MIC is commonly meant the least concentration at which growth counts as inhibited. Higher therefore signals a need for much substance. Broadly, the EC50 is the midpoint of the concentration-response curve. Lower therefore signals higher potency in that assay.

Data set [1] can be described thus: Qualitative solubility of the isolated compound. The class given is physicochemical. The conditions noted are these: CHCl3, MeOH, and DMSO.
Data set [2] deals with Streptococcus pneumoniae - penicillin sensitive. In words: MIC, serial micro broth dilution (NCCLS M7-A5). The conditions noted are these: Mueller-Hinton broth II with lysed horse blood, 35° C., 18 hours. The class given is cell-based. Here is the method: (§1) Minimum inhibitory concentrations (MICs) were determined according to the National Committee for Clinical Laboratory Standards (NCCLS) susceptibility test guideline M7-A5 to quantify the anti-microbial activity of the compound of Formula (VI) against both gram-positive and gram-negative bacteria. Ferraro, M. 2001 Methods for Dilution Antimicrobial Susceptibility Tests for Bacteria that Grow Aerobically; Approved Standard (NCCLS), Villanova, which is incorporated herein by reference in its entirety. The serial micro broth dilution method used BBL Mueller-Hinton broth (cation adjusted) except for the […] which was tested in BBL Mueller-Hinton broth II (cation adjusted) with lysed horse blood. The final bacterial inoculum contained approximately 5×10^5 CFU/ml and was run on microtiter plates. The volume of each well was 100 μl and the plates were incubated at 35° C. for 18 hours. The MIC was defined as the lowest drug concentration that prevented visible growth of the bacterium. The compound was active versus several microorganisms, especially gram-positive species.
(In broth dilution the organism is exposed to a series of concentrations in liquid medium.)

The test system of data set [3] is Streptococcus pneumoniae - penicillin resistant. Nature of the data set: MIC, serial micro broth dilution (NCCLS M7-A5). The class given is cell-based. As to conditions: Mueller-Hinton broth II with lysed horse blood, 35° C., 18 hours. Here is the method: as §1
In the next data set the test system is E. faecium - Van^r. Nature of the data set: MIC, serial micro broth dilution (NCCLS M7-A5). Type of data set: cell-based. As to conditions: Enterococcus faecium, Mueller-Hinton broth, 35° C., 18 hours. Here is the method:
as §1

The next data set deals with E. faecalis - Van^s. Nature of the data set: MIC, serial micro broth dilution (NCCLS M7-A5). Type of data set: cell-based. As to conditions: Enterococcus faecalis, Mueller-Hinton broth, 35° C., 18 hours. Here is the method: as §1
Another data set concerns E. coli - imp. Nature of the data set: MIC, serial micro broth dilution (NCCLS M7-A5). Type of data set: cell-based. As to conditions: Escherichia coli, 18 h. Here is the method:
as §1

Data set [4] relates to Staphylococcus aureus - MRSA. Nature of the data set: MIC, serial micro broth dilution (NCCLS M7-A5). The class given is cell-based. The conditions noted are these: Mueller-Hinton broth, 35° C., 18 hours. Here is the method:
as §1

The subject of data set [5] is Staphylococcus aureus - MSSA. In words: MIC, serial micro broth dilution (NCCLS M7-A5). The conditions noted are these: Mueller-Hinton broth, 35° C., 18 hours. Type of data set: cell-based. Here is the method:
as §1

For another data set, the system named is B16-F10 cells. Nature of the data set: Growth inhibition of murine melanoma B16-F10 cells (Resazurin). The class given is cell-based. The conditions noted are these: Mus musculus, 48 hours of drug exposure. Here is the method:
B16-F10 (ATCC; CRL-6475) a murine melanoma cell line was maintained in complete Dulbecco's Modification of Eagle's Medium (DMEM) (DMEM supplemented with 10% (v/v) Fetal bovine serum, 2 mM glutamine, 10 mM HEPES and Penicillin/Streptomycin at 100 IU/ml and 100 μg/ml respectively). The cells were cultured in an incubator at 37° C, 5% CO2 and 95% humidified air.
For cell growth inhibition assays, B16-F10 cells were seeded at 1.25×10^3 cells/well in 90 μl complete media into Coming 3904 black-walled, clear-bottom tissue culture plates and the plates were incubated overnight to allow cells to establish and enter log phase growth. 20mM stock solutions of the compound of Formula (VI) were prepared in 100% DMSO. 10× concentrated serial dilutions of the compound of Formula (VI) were prepared in appropriate culture medium. […]
Following 48 hours of drug exposure, 10 μl of 0.2 mg/ml Resazurin (obtained from Sigma-Aldrich Chemical Co.) in Mg^2+, Ca^2+ free phosphate buffered saline was added to each well and the plates were returned to the incubator for 3–6 hours. Since living cells metabolize Resazurin, the fluorescence of the reduction product of Resazurin was measured using a Fusion microplate fluorometer (Packard Bioscience) with λex=535 nm and λem=590 nm filters. […]

Regarding `COC(CC(C)C(O)/C=C/C=C/CNC(=O)C(C)(C)C(O)\C(C)=C/C=C\C=C\C(C)=C(/C)[N+](=O)[O-])C1(O)C(C)C(=O)N(C)C12C(=O)OC2C` (stereo not drawn) [Formula (VI)], the “solubility (qualitative)” value in data set [1] is “qualitatively soluble in CHCl3, MeOH, and DMSO”. For the same molecule, the MIC in data set [2] was determined as 2 µg/mL; in [3], 1.5 µg/mL; against E. faecium - Van^r, 20 µg/mL; in the data set with E. faecalis - Van^s, 14 µg/mL; in the data set with E. coli - imp it was 12 µg/mL; in data set [4], 5 µg/mL. In data set [5], this molecule returned an MIC of 4 µg/mL. This molecule also displayed an EC50 in the data set on B16-F10 cells of 9.6 µM.
